Experimental data as given in patent publication US20250092065A1, “2-(INDAZOL-5-YL)-6-(PIPERIDIN-4-YL)-1,7-NAPHTHYRIDINE DERIVATIVES AND RELATED COMPOUNDS AS MODULATORS FOR SPLICING NUCLEIC ACIDS AND FOR THE TREATMENT OF PROLIFERATIVE DISEASES” (REMIX THERAPEUTICS INC., priority 2022, published 2025).
pIC50: −log10 of the molar value. Like-named read-outs stand apart in the source and are kept apart here.

What was measured:
[1] = system: MYB; assay: HiBiT protein abundance assay, MYB (K562 HiBiT knock-in); assay type: cell-based, human; details: HiBiT knock-in K562 cells, 24 hours, top dose 10 μM
Outline: (§1)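 Tagged-protein levels were measured as HiBiT/LgBiT luminescence in lysed K562 knock-in cells exposed to serially diluted compound (up to 10 μM final) for 24 hours. A four-parameter logistic regression of control-normalized signal yielded the IC50.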

[2] = system: HTT mRNA; assay: RT-qPCR splicing assay, HTT mRNA canonical (CJ) and alternative (AJ) junction; assay type: cell-based, human; details: Homo sapiens; for AC50: HTT alternative junction mRNA, read-out: HTT AJ (increase in AJ mRNA, AC50)
Outline: (§2)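 A673 or K562 cells treated 24 h at 37 °C with 11-point 3-fold dilutions (top final 10 uM, DMSO ≤0.25%). Lysates analysed by one-step RT-qPCR for canonical (CJ) and alternative-exon (AJ) junctions, normalized to GAPDH, GUSB or PPIA. ΔΔCt vs DMSO, RQ = 2^(−ΔΔCt), expressed as percentage response.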

[3] = system: SMN2 mRNA; assay: RT-qPCR splicing assay, SMN2 mRNA; assay type: cell-based, human; details: Homo sapiens, canonical junction qPCR panel, Table 4; read-out: SMN2 IC50 (decrease in CJ mRNA levels)
Outline: as §2

[4] = system: K562 cells; assay: Cell Titer Glo 2.0 cell viability (toxicity) assay, K562; details: 500 cells/well, 72 hours
[5] = system: HTT; assay: HiBiT protein abundance assay, HTT (K562 HiBiT knock-in); assay type: cell-based, human; details: HiBiT knock-in K562 cells, 24 hours, top dose 10 μM
Outline: as §1

[6] = system: Target C; assay: HiBiT protein abundance assay, Target C (K562 HiBiT knock-in); assay type: cell-based, human; details: HiBiT knock-in K562 cells, 24 hours, top dose 10 μM
Outline: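 K562 HiBiT knock-in cells (10000/well) were treated 24 h at 37° C with a 10-point 3-fold dilution series (top 10 μM final, ≤0.25% DMSO). HiBiT luminescence was read after lytic LgBiT detection. Percent response used unmodified K562 and DMSO-treated knock-in controls, and IC50 came from a four-parameter fit at 50% of untreated.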

[7] = system: MYB mRNA; assay: RT-qPCR splicing assay, MYB mRNA canonical (CJ) and alternative (AJ) junction; assay type: cell-based, human; details: Homo sapiens; for AC50: MYB alternative junction mRNA, read-out: MYB AJ (increase in AJ mRNA, AC50)
Outline: as §2

[8] = HTT canonical junction mRNA, RT-qPCR, read-out: HTT CJ (decrease in CJ mRNA levels, IC50)
[9] = canonical junction qPCR panel, Table 4, read-out: HTT IC50 (decrease in CJ mRNA levels)
[10] = MYB canonical junction mRNA, RT-qPCR, read-out: MYB CJ (decrease in CJ mRNA levels, IC50)
[11] = canonical junction qPCR panel, Table 4, read-out: MYB IC50 (decrease in CJ mRNA levels)

Row | Structure (SMILES) | pIC50 [1] | AC50 ([2]; RT-qPCR) | pIC50 [2, 8] | pIC50 [2, 9] | pIC50 [3] | Effect of Exemplary Compounds on Cell Viability, K562 [4] | pIC50 [5] | pIC50 [6] | AC50 ([7]; RT-qPCR) | pIC50 [7, 10] | pIC50 [7, 11]
1 | Cn1cc2cc(-c3ccc4nc(N5CC(NC(C)(C)C)C5)ccc4n3)c(O)cc2n1 [Compound 165] | 5.00 to 6.00 | 1 to 10 µM | 5.00 to 6.00 | 5.00 to 6.00 | 5.00 to 6.00 | B (B represents 100-1000 nM) | 5.00 to 6.00 | 5.00 to 6.00 | 1 to 10 µM | 5.00 to 6.00 | 5.00 to 6.00
2 | CC(C)(C)NC1CCN(c2ccc3nc(-c4cc5cnccc5cc4O)ccc3n2)C1 (stereo not shown) [Compound 166] | < 5.00 | > 10 µM | < 5.00 | < 5.00 | < 5.00 | B (B represents 100-1000 nM) | < 5.00 | 5.00 to 6.00 | > 10 µM | < 5.00 | < 5.00
3 | Cn1cnc2cc(-c3ccc4nc(N5CCC(NC(C)(C)C)C5)ccc4n3)c(O)cc2c1=O (stereo not shown) [Compound 167] | < 5.00 | > 10 µM | < 5.00 | < 5.00 | < 5.00 | B (B represents 100-1000 nM) | < 5.00 | < 5.00 | > 10 µM | < 5.00 | < 5.00
4 | COc1cc2c(=O)n(C)cnc2cc1-c1ccc2nc(N3CCC(NC(C)(C)C)C3)ccc2n1 (stereo not shown) [Compound 168] | < 5.00 | > 10 µM | < 5.00 | < 5.00 | < 5.00 | D (D represents greater than 10 μM in K562 cells) | < 5.00 | < 5.00 | > 10 µM | < 5.00 | < 5.00
5 | CN1CCC2(CC1)CCN2c1ccc2nc(-c3cc4cn(C)nc4cc3O)ccc2n1 [Compound 169] | 5.00 to 6.00 | > 10 µM | < 5.00 | < 5.00 | 5.00 to 6.00 | B (B represents 100-1000 nM) | 5.00 to 6.00 | < 5.00 | > 10 µM | < 5.00 | < 5.00
6 | CN[C@H]1CCN(c2ccc3nc(-c4cc5cn(C)nc5cc4O)ccc3n2)C1 [Compound 170] | 6.00 to 7.00 | 0.1 to 1 µM | > 7.00 | > 7.00 | > 7.00 | B (B represents 100-1000 nM) | > 7.00 | 6.00 to 7.00 | 0.1 to 1 µM | 6.00 to 7.00 | 6.00 to 7.00
7 | CN[C@@H]1CCN(c2ccc3nc(-c4cc5cn(C)nc5cc4O)ccc3n2)C1 [Compound 172] | > 7.00 | 0.1 to 1 µM | > 7.00 | > 7.00 | > 7.00 | B (B represents 100-1000 nM) | > 7.00 | 6.00 to 7.00 | < 0.1 µM | > 7.00 | > 7.00
8 | CC(C)N[C@@H]1CCN(c2ccc3nc(-c4cc5cn(C)nc5cc4O)ccc3n2)C1 [Compound 173] | > 7.00 | < 0.1 µM | > 7.00 | > 7.00 | > 7.00 | A (A represents <100 nM) | > 7.00 | > 7.00 | < 0.1 µM | > 7.00 | > 7.00
9 | Cc1cc(=O)c2cc(O)c(-c3ccc4nc(N5CCC(NC(C)(C)C)C5)ccc4n3)cc2o1 (stereo not shown) [Compound 174] | < 5.00 | > 10 µM | < 5.00 | < 5.00 | < 5.00 | A (A represents <100 nM) | < 5.00 | < 5.00 | > 10 µM | < 5.00 | < 5.00
10 | Cc1nc2cc(O)c(-c3ccc4nc(N5CCC(NC(C)(C)C)C5)ccc4n3)cc2o1 (stereo not shown) [Compound 175] | > 7.00 | < 0.1 µM | > 7.00 | > 7.00 | > 7.00 | B (B represents 100-1000 nM) | > 7.00 | > 7.00 | < 0.1 µM | > 7.00 | > 7.00
11 | COc1cc2nc(C)sc2cc1-c1ccc2nc(N3CCC(NC(C)(C)C)C3)ccc2n1 (stereo not shown) [Compound 176] | 5.00 to 6.00 | 1 to 10 µM | 5.00 to 6.00 | 5.00 to 6.00 | 5.00 to 6.00 | C (C represents 1000-9999 nM) | 5.00 to 6.00 | 5.00 to 6.00 | 1 to 10 µM | 5.00 to 6.00 | 5.00 to 6.00
12 | COc1cc2nc(C)oc2cc1-c1ccc2nc(N3CCC(NC(C)(C)C)C3)ccc2n1 (stereo not shown) [Compound 177] | 5.00 to 6.00 | 1 to 10 µM | 5.00 to 6.00 | 5.00 to 6.00 | 5.00 to 6.00 | C (C represents 1000-9999 nM) | 5.00 to 6.00 | 5.00 to 6.00 | 1 to 10 µM | 5.00 to 6.00 | 5.00 to 6.00
13 | Cn1cc2cc(-c3ccc4nc(N5CCC6(CCN6)C5)ccc4n3)c(O)cc2n1 (stereo not shown) [Compound 178] | 6.00 to 7.00 | 0.1 to 1 µM | 6.00 to 7.00 | 6.00 to 7.00 | > 7.00 | B (B represents 100-1000 nM) | 6.00 to 7.00 | 6.00 to 7.00 | 0.1 to 1 µM | 6.00 to 7.00 | 6.00 to 7.00
14 | CCN[C@H]1CCN(c2ccc3nc(-c4cc5cn(C)nc5cc4O)ccc3n2)C1 [Compound 179] | 6.00 to 7.00 | < 0.1 µM | > 7.00 | > 7.00 | > 7.00 | B (B represents 100-1000 nM) | > 7.00 | 6.00 to 7.00 | < 0.1 µM | 6.00 to 7.00 | 6.00 to 7.00
